In brackets after ≈: the same amount, converted by molar mass.
Tested on: Adriamycin-sensitive P388 leukemia cells (P388/S)
Test: Growth inhibition of cultured Adriamycin-sensitive P388 leukemia cells
Type: cell-based
Settings: Mus musculus, P388/S, read-out: IC50 (μg/ml) P388/S
Text: The substance MH190 of the present invention are capable of inhibiting the growth of cultured Adriamycin-sensitive P388 leukemia cells (P388/S) and Adriamycin-resistant P388 leukemia cells (P388/ADR) in very low concentrations.

Row | Structure (SMILES) | IC50 [µg/mL]
1 | CC1OC2OC3C(C)OC(c4ccc5c(c4O)C(=O)C4=C(C5=O)C5(O)C(=O)CC(C)(O)CC5(O)C=C4)CC3OC2CC1=O (stereo not drawn) [MH190 Y2-1, Saquayamycin B1] | 0.13 (≈ 0.218 µM)
2 | CC1OC(OC2CCC(OC3(C)CC(=O)C4(O)C5=C(C=CC4(O)C3)C(=O)c3c(ccc(C4CC(O)C(OC6CCC(=O)C(C)O6)C(C)O4)c3O)C5=O)OC2C)CCC1=O (stereo not drawn) [MH190 Y3, Saquayamycin C] | 0.072 (≈ 0.0873 µM)

Same assay, conditions: Mus musculus; cultured P388/S cells; read-out: IC50 (μg/ml) P388/S

Row | Structure (SMILES) | IC50 [µg/mL]
3 | CC1OC(OC2CCC(OC3(C)CC(=O)C4(O)C5=C(C=CC4(O)C3)C(=O)c3c(ccc(C4CC(O)C(OC6C=CC(=O)C(C)O6)C(C)O4)c3O)C5=O)OC2C)C=CC1=O (stereo not drawn) [MH190 Y1, Saquayamycin A] | 0.067 (≈ 0.0816 µM)

Tested on: Adriamycin-resistant P388 leukemia cells (P388/ADR)
Test: Growth inhibition of cultured Adriamycin-resistant (multi-drug resistant) P388 leukemia cells
Type: cell-based
Settings: Mus musculus, P388/ADR, read-out: IC50 (μg/ml) P388/ADR

Row | Structure (SMILES) | IC50 [µg/mL]
4 | CC1OC2OC3C(C)OC(c4ccc5c(c4O)C(=O)C4=C(C5=O)C5(O)C(=O)CC(C)(O)CC5(O)C=C4)CC3OC2CC1=O (stereo not drawn) [MH190 Y2-1, Saquayamycin B1] | 0.074 (≈ 0.124 µM)
5 | CC1OC(OC2CCC(OC3(C)CC(=O)C4(O)C5=C(C=CC4(O)C3)C(=O)c3c(ccc(C4CC(O)C(OC6CCC(=O)C(C)O6)C(C)O4)c3O)C5=O)OC2C)CCC1=O (stereo not drawn) [MH190 Y3, Saquayamycin C] | 0.06 (≈ 0.0727 µM)

Same assay, conditions: Mus musculus; cultured P388/ADR cells; read-out: IC50 (μg/ml) P388/ADR

Row | Structure (SMILES) | IC50 [µg/mL]
6 | CC1OC(OC2CCC(OC3(C)CC(=O)C4(O)C5=C(C=CC4(O)C3)C(=O)c3c(ccc(C4CC(O)C(OC6C=CC(=O)C(C)O6)C(C)O4)c3O)C5=O)OC2C)C=CC1=O (stereo not drawn) [MH190 Y1, Saquayamycin A] | 0.056 (≈ 0.0682 µM)

Same assay, conditions: ratio of IC50 P388/ADR to IC50 P388/S

Row | Structure (SMILES) | Ratio (P388/ADR to P388/S)
7 | CC1OC2OC3C(C)OC(c4ccc5c(c4O)C(=O)C4=C(C5=O)C5(O)C(=O)CC(C)(O)CC5(O)C=C4)CC3OC2CC1=O (stereo not drawn) [MH190 Y2-1, Saquayamycin B1] | 0.57
8 | CC1OC(OC2CCC(OC3(C)CC(=O)C4(O)C5=C(C=CC4(O)C3)C(=O)c3c(ccc(C4CC(O)C(OC6C=CC(=O)C(C)O6)C(C)O4)c3O)C5=O)OC2C)C=CC1=O (stereo not drawn) [MH190 Y1, Saquayamycin A] | 0.84
9 | CC1OC(OC2CCC(OC3(C)CC(=O)C4(O)C5=C(C=CC4(O)C3)C(=O)c3c(ccc(C4CC(O)C(OC6CCC(=O)C(C)O6)C(C)O4)c3O)C5=O)OC2C)CCC1=O (stereo not drawn) [MH190 Y3, Saquayamycin C] | 0.83

Tested on: not listed separately
Test: Stability (physicochemical properties, Table 5)
Settings: light, acid, alkali, silica gel

Row | Structure (SMILES) | Stability
10 | CC1OC(OC2C(O)CC(c3ccc4c(c3O)C(=O)C3=C(C4=O)C4(O)C(=O)CC(C)(O)CC4(O)C=C3)OC2C)CCC1=O (stereo not drawn) [MH190 Y3-1, Saquayamycin C1] | instable against light, acid and alkali
11 | CC1OC2OC3C(C)OC(c4ccc5c(c4O)C(=O)C4=C(C5=O)C5(O)C(=O)CC(C)(O)CC5(O)C=C4)CC3OC2CC1=O (stereo not drawn) [MH190 Y2-1, Saquayamycin B1] | instable against light, acid and alkali
12 | CC1OC(OC2CCC(OC3(C)CC(=O)C4(O)C5=C(C=CC4(O)C3)C(=O)c3c(ccc(C4CC(O)C(OC6C=CC(=O)C(C)O6)C(C)O4)c3O)C5=O)OC2C)C=CC1=O (stereo not drawn) [MH190 Y1, Saquayamycin A] | instable against light, acid and alkali changed to MH190 Y2 on silica gel
13 | CC1OC(OC2CCC(OC3(C)CC(=O)C4(O)C5=C(C=CC4(O)C3)C(=O)c3c(ccc(C4CC(O)C(OC6CCC(=O)C(C)O6)C(C)O4)c3O)C5=O)OC2C)CCC1=O (stereo not drawn) [MH190 Y3, Saquayamycin C] | instable against light, acid and alkali

Tested on: not listed separately
Test: Solubility in solvents (physicochemical properties, Table 5)
Settings: solvents in which the substance is soluble

Row | Structure (SMILES) | Solubility (1) Soluble
14 | CC1OC(OC2C(O)CC(c3ccc4c(c3O)C(=O)C3=C(C4=O)C4(O)C(=O)CC(C)(O)CC4(O)C=C3)OC2C)CCC1=O (stereo not drawn) [MH190 Y3-1, Saquayamycin C1] | CHCl3, ethyl acetate, butyl acetate, methanol, acetonitrile acetone, dimethyl sulfoxide
15 | CC1OC2OC3C(C)OC(c4ccc5c(c4O)C(=O)C4=C(C5=O)C5(O)C(=O)CC(C)(O)CC5(O)C=C4)CC3OC2CC1=O (stereo not drawn) [MH190 Y2-1, Saquayamycin B1] | CHCl3, ethyl acetate, butyl acetate, methanol, acetonitrile, acetone, dimethyl sulfoxide
16 | CC1OC(OC2CCC(OC3(C)CC(=O)C4(O)C5=C(C=CC4(O)C3)C(=O)c3c(ccc(C4CC(O)C(OC6C=CC(=O)C(C)O6)C(C)O4)c3O)C5=O)OC2C)C=CC1=O (stereo not drawn) [MH190 Y1, Saquayamycin A] | CHCl3, ethyl acetate, butyl acetate, methanol, acetonitrile, acetone, dimethyl sulfoxide
17 | CC1OC(OC2CCC(OC3(C)CC(=O)C4(O)C5=C(C=CC4(O)C3)C(=O)c3c(ccc(C4CC(O)C(OC6CCC(=O)C(C)O6)C(C)O4)c3O)C5=O)OC2C)CCC1=O (stereo not drawn) [MH190 Y3, Saquayamycin C] | CHCl3, ethyl acetate, butyl acetate, methanol, acetonitrile, acetone, dimethyl sulfoxide

Same assay, conditions: solvents in which the substance is sparingly soluble

Row | Structure (SMILES) | Solubility (2) Sparingly soluble
18 | CC1OC(OC2C(O)CC(c3ccc4c(c3O)C(=O)C3=C(C4=O)C4(O)C(=O)CC(C)(O)CC4(O)C=C3)OC2C)CCC1=O (stereo not drawn) [MH190 Y3-1, Saquayamycin C1] | H2O, hexane, petroleum ether
19 | CC1OC2OC3C(C)OC(c4ccc5c(c4O)C(=O)C4=C(C5=O)C5(O)C(=O)CC(C)(O)CC5(O)C=C4)CC3OC2CC1=O (stereo not drawn) [MH190 Y2-1, Saquayamycin B1] | H2O, hexane, petroleum ether
20 | CC1OC(OC2CCC(OC3(C)CC(=O)C4(O)C5=C(C=CC4(O)C3)C(=O)c3c(ccc(C4CC(O)C(OC6C=CC(=O)C(C)O6)C(C)O4)c3O)C5=O)OC2C)C=CC1=O (stereo not drawn) [MH190 Y1, Saquayamycin A] | H2O, hexane, petroleum ether
21 | CC1OC(OC2CCC(OC3(C)CC(=O)C4(O)C5=C(C=CC4(O)C3)C(=O)c3c(ccc(C4CC(O)C(OC6CCC(=O)C(C)O6)C(C)O4)c3O)C5=O)OC2C)CCC1=O (stereo not drawn) [MH190 Y3, Saquayamycin C] | H2O, hexane, petroleum ether

Source: patent EP0191399A2, “Benz[a]anthraquinone compounds, a microbial process for their preparation and their use as medicaments” (priority 1985, dated 1986)
